{"source": "ChEMBL document CHEMBL4725412", "about": "“Augmenting the Activity of Macrolide Adjuvants against Acinetobacter baumannii” (2020)", "assay_type_in_all_cases": "functional", "key": {"[1]": {"system": "Acinetobacter baumannii", "test": "Potentiation of clarithromycin-induced antibacterial activity against Acinetobacter baumannii AB5075 assessed as fold reduction in clarithromycin MIC at 30 uM after 2 to 9 days by broth microdilution method", "conditions": "time day 2-9"}, "[2]": {"system": "Acinetobacter baumannii", "test": "Potentiation of clarithromycin-induced antibacterial activity against Acinetobacter baumannii AB5075 assessed as fold reduction in clarithromycin MIC at 30 uM by broth microdilution method (reference value: 512 ug/ml)"}, "[3]": {"system": "Acinetobacter baumannii", "test": "Potentiation of clarithromycin-induced antibacterial activity against Acinetobacter baumannii AB5075 assessed as clarithromycin MIC at 10 uM by CLSI based microdilution method (reference value: […] ug/ml)"}, "[4]": {"system": "Acinetobacter baumannii", "test": "Potentiation of clarithromycin-induced antibacterial activity against Acinetobacter baumannii AB5075 assessed as assessed as fold reduction in clarithromycin MIC at 10 uM by CLSI based microdilution method"}, "[5]": {"system": "Acinetobacter baumannii", "test": "Potentiation of clarithromycin-induced antibacterial activity against Acinetobacter baumannii AB5075 assessed as clarithromycin MIC at 30 uM by CLSI based microdilution method (reference value: […] ug/ml)"}, "[6]": {"system": "Acinetobacter baumannii", "test": "Antibacterial activity against Acinetobacter baumannii AB5075 assessed as reduction in microbial growth by CLSI based microdilution method"}, "[7]": {"system": "Acinetobacter baumannii", "test": "Potentiation of clarithromycin-induced antibacterial activity against Acinetobacter baumannii AB5075 assessed as clarithromycin MIC at 30 uM after 2 to 9 days by broth microdilution method (reference value: […] ug/ml)", "conditions": "time day 2-9"}, "[8]": {"system": "Acinetobacter baumannii", "test": "Potentiation of clarithromycin-induced antibacterial activity against Acinetobacter baumannii AB5075 assessed as fold reduction in clarithromycin MIC at 7.5 uM incubated for 16 hrs in presence of clarithromycin broth microdilution method"}, "[9]": {"system": "Acinetobacter baumannii", "test": "Potentiation of clarithromycin-induced antibacterial activity against Acinetobacter baumannii 4991 assessed as fold reduction in clarithromycin MIC at 10 uM incubated for 16 hrs by broth microdilution method"}, "[10]": {"system": "Acinetobacter baumannii", "test": "Potentiation of clarithromycin-induced antibacterial activity against Acinetobacter baumannii 4027 assessed as fold reduction in clarithromycin MIC at 10 uM incubated for 16 hrs by broth microdilution method"}, "[11]": {"system": "Acinetobacter baumannii", "test": "Potentiation of clarithromycin-induced antibacterial activity against Acinetobacter baumannii 3806 assessed as fold reduction in clarithromycin MIC at 10 uM incubated for 16 hrs by broth microdilution method"}, "[12]": {"system": "Acinetobacter baumannii", "test": "Potentiation of clarithromycin-induced antibacterial activity against Acinetobacter baumannii 3560 assessed as fold reduction in clarithromycin MIC at 10 uM incubated for 16 hrs by broth microdilution method"}, "[13]": {"system": "Acinetobacter baumannii", "test": "Potentiation of clarithromycin-induced antibacterial activity against Acinetobacter baumannii AB5075 assessed as fold reduction in clarithromycin MIC at 20 uM incubated for 16 hrs in presence of clarithromycin by broth microdilution method"}, "[14]": {"system": "Acinetobacter baumannii", "test": "Potentiation of clarithromycin-induced antibacterial activity against Acinetobacter baumannii 8967 assessed as fold reduction in clarithromycin MIC at 10 uM incubated for 16 hrs by broth microdilution method"}, "[15]": {"system": "Acinetobacter baumannii", "test": "Potentiation of clarithromycin-induced antibacterial activity against Acinetobacter baumannii 5711 assessed as fold reduction in clarithromycin MIC at 10 uM incubated for 16 hrs by broth microdilution method"}, "[16]": {"system": "Acinetobacter baumannii", "test": "Potentiation of clarithromycin-induced antibacterial activity against Acinetobacter baumannii AB5075 assessed as clarithromycin MIC at 5 uM incubated for 16 hrs by broth microdilution method (reference value: […] ug/ml)"}, "[17]": {"system": "Acinetobacter baumannii", "test": "Potentiation of clarithromycin-induced antibacterial activity against Acinetobacter baumannii 4490 assessed as fold reduction in clarithromycin MIC at 10 uM incubated for 16 hrs by broth microdilution method"}, "[18]": {"system": "Acinetobacter baumannii", "test": "Potentiation of clarithromycin-induced antibacterial activity against Acinetobacter baumannii AB5075 assessed as fold reduction in clarithromycin MIC at 10 uM incubated for 16 hrs in presence of clarithromycin by broth microdilution method"}, "[19]": {"system": "Acinetobacter baumannii", "test": "Potentiation of clarithromycin-induced antibacterial activity against Acinetobacter baumannii AB5075 assessed as clarithromycin MIC at 7.5 uM incubated for 16 hrs by broth microdilution method (reference value: […] ug/ml)"}, "[20]": {"system": "Acinetobacter baumannii", "test": "Potentiation of clarithromycin-induced antibacterial activity against Acinetobacter baumannii 4795 assessed as fold reduction in clarithromycin MIC at 10 uM incubated for 16 hrs by broth microdilution method"}, "[21]": {"system": "Acinetobacter baumannii", "test": "Potentiation of clarithromycin-induced antibacterial activity against Acinetobacter baumannii 4448 assessed as fold reduction in clarithromycin MIC at 10 uM incubated for 16 hrs by broth microdilution method"}, "[22]": {"system": "Acinetobacter baumannii", "test": "Potentiation of clarithromycin-induced antibacterial activity against Acinetobacter baumannii 4857 assessed as fold reduction in clarithromycin MIC at 10 uM incubated for 16 hrs by broth microdilution method"}, "[23]": {"system": "Acinetobacter baumannii", "test": "Potentiation of clarithromycin-induced antibacterial activity against Acinetobacter baumannii 4269 assessed as fold reduction in clarithromycin MIC at 10 uM incubated for 16 hrs by broth microdilution method"}, "[24]": {"system": "Acinetobacter baumannii", "test": "Potentiation of clarithromycin-induced antibacterial activity against Acinetobacter baumannii 4052 assessed as fold reduction in clarithromycin MIC at 10 uM incubated for 16 hrs by broth microdilution method"}, "[25]": {"system": "Acinetobacter baumannii", "test": "Potentiation of clarithromycin-induced antibacterial activity against Acinetobacter baumannii AB5075 assessed as clarithromycin MIC at 20 uM incubated for 16 hrs by broth microdilution method (reference value: […] ug/ml)"}, "[26]": {"system": "Acinetobacter baumannii", "test": "Potentiation of clarithromycin-induced antibacterial activity against Acinetobacter baumannii 4957 assessed as fold reduction in clarithromycin MIC at 10 uM incubated for 16 hrs by broth microdilution method"}, "[27]": {"system": "Acinetobacter baumannii", "test": "Potentiation of clarithromycin-induced antibacterial activity against Acinetobacter baumannii 4878 assessed as fold reduction in clarithromycin MIC at 10 uM incubated for 16 hrs by broth microdilution method"}, "[28]": {"system": "Acinetobacter baumannii", "test": "Potentiation of clarithromycin-induced antibacterial activity against Acinetobacter baumannii 4456 assessed as fold reduction in clarithromycin MIC at 10 uM incubated for 16 hrs by broth microdilution method"}, "[29]": {"system": "Acinetobacter baumannii", "test": "Potentiation of clarithromycin-induced antibacterial activity against Acinetobacter baumannii 5197 assessed as fold reduction in clarithromycin MIC at 10 uM incubated for 16 hrs by broth microdilution method"}, "[30]": {"system": "Acinetobacter baumannii", "test": "Potentiation of clarithromycin-induced antibacterial activity against Acinetobacter baumannii AB5075 assessed as clarithromycin MIC at 10 uM incubated for 16 hrs by broth microdilution method (reference value: […] ug/ml)"}, "[31]": {"system": "Acinetobacter baumannii", "test": "Potentiation of clarithromycin-induced antibacterial activity against Acinetobacter baumannii AB5075 assessed as fold reduction in clarithromycin MIC at 30 uM incubated for 16 hrs in presence of clarithromycin by broth microdilution method"}, "[32]": {"system": "Acinetobacter baumannii", "test": "Potentiation of clarithromycin-induced antibacterial activity against Acinetobacter baumannii 4026 assessed as fold reduction in clarithromycin MIC at 10 uM incubated for 16 hrs by broth microdilution method"}, "[33]": {"system": "Acinetobacter baumannii", "test": "Potentiation of clarithromycin-induced antibacterial activity against Acinetobacter baumannii AB5075 assessed as fold reduction in clarithromycin MIC at 5 uM incubated for 16 hrs in presence of clarithromycin by broth microdilution method"}, "[34]": {"system": "Acinetobacter baumannii", "test": "Antibacterial activity against Acinetobacter baumannii AB5075 assessed as reduction in microbial growth incubated for 16 hrs by broth microdilution method"}, "[35]": {"system": "Acinetobacter baumannii", "test": "Potentiation of clarithromycin-induced antibacterial activity against Acinetobacter baumannii 4025 assessed as fold reduction in clarithromycin MIC at 10 uM incubated for 16 hrs by broth microdilution method"}, "[36]": {"system": "Acinetobacter baumannii", "test": "Potentiation of clarithromycin-induced antibacterial activity against Acinetobacter baumannii 4498 assessed as fold reduction in clarithromycin MIC at 10 uM incubated for 16 hrs by broth microdilution metho"}, "[37]": {"system": "Acinetobacter baumannii", "test": "Potentiation of clarithromycin-induced antibacterial activity against Acinetobacter baumannii 3785 assessed as fold reduction in clarithromycin MIC at 10 uM incubated for 16 hrs by broth microdilution method"}, "[38]": {"system": "Acinetobacter baumannii", "test": "Potentiation of clarithromycin-induced antibacterial activity against Acinetobacter baumannii 5256 assessed as fold reduction in clarithromycin MIC at 10 uM incubated for 16 hrs by broth microdilution method"}, "[39]": {"system": "Acinetobacter baumannii", "test": "Potentiation of clarithromycin-induced antibacterial activity against Acinetobacter baumannii AB5075 assessed as clarithromycin MIC at […] incubated for 16 hrs by broth microdilution method (reference value: […] ug/ml)", "conditions": "dose 30 µM"}, "[40]": {"system": "Acinetobacter baumannii", "test": "Potentiation of clarithromycin-induced antibacterial activity against Acinetobacter baumannii 3927 assessed as fold reduction in clarithromycin MIC at 10 uM incubated for 16 hrs by broth microdilution method"}, "[41]": {"system": "Acinetobacter baumannii", "test": "Potentiation of clarithromycin-induced antibacterial activity against Acinetobacter baumannii 5001 assessed as fold reduction in clarithromycin MIC at 10 uM incubated for 16 hrs by broth microdilution method"}}, "data": [{"smiles": "Cl.Nc1nc(-c2ccc(NC(=O)c3cc(Cl)cc(Cl)c3)cc2)c[nH]1", "values": [{"measurement": "fold change (FC)", "setting": "[1]", "result": 128}, {"measurement": "MIC", "setting": "[2]", "result": 2, "unit": "µg/mL"}, {"measurement": "MIC", "setting": "[3]", "result": 2, "unit": "µg/mL"}, {"measurement": "fold change (FC)", "setting": "[4]", "result": 16}, {"measurement": "MIC", "setting": "[5]", "result": 0.25, "unit": "µg/mL"}, {"measurement": "MIC", "setting": "[6]", "result": 100, "unit": "µM"}, {"measurement": "MIC", "setting": "[7]", "result": 0.25, "unit": "µg/mL"}]}, {"smiles": "Cl.Nc1nc(-c2ccc(NC(=O)c3ccc(Cl)c(Cl)c3)cc2F)c[nH]1", "values": [{"measurement": "fold change (FC)", "setting": "[8]", "result": 32}, {"measurement": "fold change (FC)", "setting": "[9]", "result": 8}, {"measurement": "fold change (FC)", "setting": "[10]", "result": 8}, {"measurement": "fold change (FC)", "setting": "[11]", "result": 8}, {"measurement": "fold change (FC)", "setting": "[12]", "result": 8}, {"measurement": "fold change (FC)", "setting": "[13]", "result": 64}, {"measurement": "fold change (FC)", "setting": "[14]", "result": 8}, {"measurement": "fold change (FC)", "setting": "[15]", "result": 8}, {"measurement": "MIC", "setting": "[16]", "result": 8, "unit": "µg/mL"}, {"measurement": "fold change (FC)", "setting": "[17]", "result": 8}, {"measurement": "fold change (FC)", "setting": "[18]", "result": 64}, {"measurement": "MIC", "setting": "[19]", "result": 1, "unit": "µg/mL"}, {"measurement": "fold change (FC)", "setting": "[20]", "result": 8}, {"measurement": "fold change (FC)", "setting": "[21]", "result": 8}, {"measurement": "fold change (FC)", "setting": "[22]", "result": 8}, {"measurement": "fold change (FC)", "setting": "[23]", "result": 8}, {"measurement": "fold change (FC)", "setting": "[24]", "result": 8}, {"measurement": "MIC", "setting": "[25]", "result": 0.5, "unit": "µg/mL"}, {"measurement": "fold change (FC)", "setting": "[26]", "result": 8}, {"measurement": "fold change (FC)", "setting": "[27]", "result": 8}, {"measurement": "fold change (FC)", "setting": "[28]", "result": 8}, {"measurement": "fold change (FC)", "setting": "[29]", "result": 8}, {"measurement": "MIC", "setting": "[30]", "result": 0.5, "unit": "µg/mL"}, {"measurement": "fold change (FC)", "setting": "[31]", "result": 64}, {"measurement": "fold change (FC)", "setting": "[32]", "result": 8}, {"measurement": "fold change (FC)", "setting": "[33]", "result": 4}, {"measurement": "MIC", "setting": "[34]", "result": "> 200", "unit": "µM"}, {"measurement": "fold change (FC)", "setting": "[35]", "result": 8}, {"measurement": "fold change (FC)", "setting": "[36]", "result": 8}, {"measurement": "fold change (FC)", "setting": "[37]", "result": 8}, {"measurement": "fold change (FC)", "setting": "[38]", "result": 8}, {"measurement": "MIC", "setting": "[39]", "result": 0.5, "unit": "µg/mL"}, {"measurement": "fold change (FC)", "setting": "[40]", "result": 8}, {"measurement": "fold change (FC)", "setting": "[41]", "result": 8}]}]}
